Key:
mice treated with MPTP = settings: cited from earlier work
[1] = system: 6-OHDA rodent model of PD; settings: cited from earlier work
mice (model of anxiety) [2] = settings: reported by Addex 2010; cited from earlier work
mice (model of anxiety) [3] = settings: reported by Addex 2010; cited from earlier work; remark: listed apart in the source
rats (model of anxiety) = settings: cited from earlier work
human mGlu4 receptor = human mGlu4 receptor (Homo sapiens (Human), UniProt Q14833); test: Ca2+ mobilization in vitro assay on recombinant human mGlu4 expressed in HEK293 cells (PAM); assay type: cell-based; settings: for Emax: HEK293, maximal response in % of maximal stimulatory effect of saturating L-AP4, read-out: Eff. (%); for EC50: HEK293 cells, human mGlu4, in presence of EC20 of L-AP4, read-out: EC50 (nM) mGlu4PAM
Procedure, shortened: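 HEK293 cells stably expressing human mGlu4 at low level, Fluo-4AM loaded; compound (11 half-log dilutions) pre-incubated 10–30 min at 37 °C, then L-AP4 added at EC20 (determined daily). Peak fluorescence minus basal, normalized to saturating L-AP4; EC50, Hill slope and % Emax from four-parameter fit.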

human mGlu4 receptor, sequence (Q14833 33-912): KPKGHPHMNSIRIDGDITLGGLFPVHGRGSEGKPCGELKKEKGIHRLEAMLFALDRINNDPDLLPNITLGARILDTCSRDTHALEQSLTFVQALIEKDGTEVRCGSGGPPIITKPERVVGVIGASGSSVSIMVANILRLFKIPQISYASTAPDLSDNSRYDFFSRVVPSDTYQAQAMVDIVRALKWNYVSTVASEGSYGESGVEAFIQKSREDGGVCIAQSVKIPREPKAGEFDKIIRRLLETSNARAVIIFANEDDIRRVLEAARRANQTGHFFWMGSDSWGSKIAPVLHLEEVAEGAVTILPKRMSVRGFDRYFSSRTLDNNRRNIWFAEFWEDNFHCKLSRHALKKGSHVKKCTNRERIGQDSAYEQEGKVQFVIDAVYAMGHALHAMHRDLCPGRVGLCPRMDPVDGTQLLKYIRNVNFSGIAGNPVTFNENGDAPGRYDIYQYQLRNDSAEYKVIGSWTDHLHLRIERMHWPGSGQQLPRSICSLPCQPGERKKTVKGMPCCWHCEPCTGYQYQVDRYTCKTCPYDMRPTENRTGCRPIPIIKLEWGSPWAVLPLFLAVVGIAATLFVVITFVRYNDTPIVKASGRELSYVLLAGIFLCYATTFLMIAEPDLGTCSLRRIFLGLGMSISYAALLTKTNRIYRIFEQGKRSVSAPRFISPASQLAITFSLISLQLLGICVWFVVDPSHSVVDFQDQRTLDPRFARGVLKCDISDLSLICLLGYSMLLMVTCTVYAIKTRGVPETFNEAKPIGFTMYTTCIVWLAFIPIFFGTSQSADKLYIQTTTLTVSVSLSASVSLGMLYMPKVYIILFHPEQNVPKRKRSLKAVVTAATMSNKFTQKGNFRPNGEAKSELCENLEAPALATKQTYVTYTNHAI

## O=C(Nc1ccccc1)C12CC1/C(=N\O)c1ccccc1O2 (single isomer, unassigned; (-)) [(−)-PHCCC]
Mice treated with MPTP
  nigrostriatal degeneration: reduced nigrostriatal degeneration

## N[C@@H](CCP(=O)(O)O)C(=O)O [L-AP4, (2S)-2-amino-4-phosphonobutanoic acid]
[1]
  neuroprotection: neuroprotective effects

## Cc1ccnc(Nc2nc(-c3cn[nH]c3)c(C)s2)n1 [ADX88178]
Mice (model of anxiety) [2]
  activity in marble burying test: active
Mice (model of anxiety) [3]
  activity in EPM: active
Rats (model of anxiety); rat, after oral dosing
  profile in rat EPM test: anxiolytic-like profile
Rats (model of anxiety); rats, reported by Addex 2010
  activity in EPM: active

## Cn1nccc1N1CCN2C(=O)N(c3c(F)cc(C#Cc4ccccc4)cc3F)C(=O)C[C@@]2(C)C1=O [Example 65, (9aS)-7-[2,6-difluoro-4-(2-phenylethynyl)phenyl]-9a-methyl-2-(2-methylpyrazol-3-yl)-4,9-dihydro-3H-pyrazino[1,2-c]pyrimidine-1,6,8-trione]
Human mGlu4 receptor
  Emax: 92%
  EC50: 92 nM

## Cc1cc(N2CCN3C(=O)N(c4c(F)cc(C#Cc5ccccc5)cc4F)C(=O)CC3(C)C2=O)n(C)n1 (racemic) [Example 66, (9aRS)-7-[2,6-difluoro-4-(2-phenylethynyl)phenyl]-2-(2,5-dimethylpyrazol-3-yl)-9a-methyl-4,9-dihydro-3H-pyrazino[1,2-c]pyrimidine-1,6,8-trione]
Human mGlu4 receptor
  Emax: 142%
  EC50: 85 nM

Source: US10011607B2, “Ethynyl derivatives” (Hoffmann-La Roche Inc., priority 2015, dated 2018)
